The source of these data is patent publication US10112974B2, “Method for the production of 18F-labeled active esters and their application exemplified by the preparation of a PSMA-specific PET-tracer” (Max-Planck-Gesellschaft zur Foerderung der Wissenschaften …, priority 2014, dated 2018).

Data set [1] can be described thus: Storage and solution stability of iodonium iodide 22. In kind it is physicochemical.
In data set [2] the test system is LNCaP-C4-2 prostate tumor cells.
Procedure: Five 8-week-old male C.B-Igh-1b/IcrTac-Prkdcscid mice (Taconic) were injected subcutaneously in the neck region with 4×10^6 LNCaP-C4-2 prostate tumor cells. […] The first PET measurement was immediately followed by a CT scan during which the animal was left in the same position. Both tracers were injected i.v. through the lateral tail vein ([^18F]1-10: 21-32 MBq; [^68Ga]HBED-CC: 19-33 MBq, on two consecutive days). Emission data collection started 60 min after injection and lasted 45 min. Image reconstruction was performed using Fourier rebinning and an ordered subset expectation maximization (3D-OSEM) procedure, yielding images with voxel sizes of 0.78×0.78×0.80 mm. Image analysis was performed with VINCI 4.0 (MPI for Metabolism Research, Cologne, Germany). Tracer uptake in the tumor as well as liver, kidney, and background was determined using volumes of interest (VOIs) covering the respective structure. Significant differences were assessed using two-way repeated measures ANOVA with factors “structure” and “tracer”, followed by Holm-Sidak post hoc comparison. Tumor sizes were measured by drawing accurate tumor VOIs in the CT images, and extracting VOI volume. Tracer uptake was correlated tumor size using the Pearson correlation test.
Data set [3] concerns PSMA positive prostate tumor xenografts. The settings on record: PSMA positive prostate tumor xenografts in mice; clear delineation; cited from earlier work.

Molecules are shown by their SMILES.

On to `COc1ccc([I+]c2ccc(C(=O)Oc3c(F)c(F)cc(F)c3F)cc2)cc1.[I-]` [Compound 22, (4-Methoxyphenyl) [4-(2,3,5,6-tetrafluorophenoxycarbonyl)phenyl]iodonium iodide], for which the stability in solution result in data set [1] (in solution, especially at elevated temperatures, in DMF or DMSO already at ambient temperature) is given as “unstable”. In data set [1] (stored at 4° C. under argon), this compound showed a storage stability not below 4 months.
As to `O=C(O)CCC(NC(=O)NC(CCCCNC(=O)c1ccc([18F])nc1)C(=O)O)C(=O)O` (stereo not drawn) [[^18F]1-10, 2-(3-{1-carboxy-5-[(6-[^18F]fluoro-pyridine-3-carbonyl)-amino]-pentyl}-ureido)-pentanedioic acid], the tumor tracer uptake in data set [2] (PET 60 min after i.v. injection, 45 min emission, LNCaP-C4-2 xenograft mice, tumor VOI) worked out at 1.4±1.7 % ID/g. Moreover, the “Signal-to-noise ratio (tumor versus background)” value in data set [2] (PET 60 min after i.v. injection, LNCaP-C4-2 xenograft mice) was determined as 5.9±4.2. In addition, in data set [2] (PET 60 min after i.v. injection, kidney VOI), the “uptake in the kidney” value came to 3.0±1.9 % ID/g. The compound also showed a liver uptake in data set [2] (PET 60 min after i.v. injection, liver VOI) of 1.1±0.5 % ID/g. For the same compound, in data set [2] (PSMA^+ PCa mice model), the “imaging characteristics compared to [^68Ga]HBED-CC (50)” value is on record as “nearly identical” and the “kidney uptake compared to [^68Ga]HBED-CC (50)” value is reported as “much lower”. Also, the “tumor to background ratio” value in data set [3] is recorded as “excellent”.
